# From patent publication EP0450097B1, “BENZOHETEROCYCLIC COMPOUNDS” (OTSUKA PHARMACEUTICAL CO., LTD., priority 1989, dated 1991)
# Biological target: T1, V₂ receptor (Rattus norvegicus, UniProt Q00788)
# T1 construct: Using rat kidney plasma membrane preparations; from tissue; host or cells: rat kidney plasma membranes
# Assay: V₂ receptor binding assay ([³H]-Arg-vasopressin, rat kidney plasma membrane preparations)
# Settings: 4°C for 3 hours
# Description: Using rat kidney plasma membrane preparations prepared according to O. Hechter's method [cf: J. Bio. […] After incubation, the mixture is filtered using the glass filter (GF/F) so as to separate the membrane preparation combined with vasopressin and then washed twice with the buffer (5 ml). This glass filter is taken out and mixed with liquid scintillation cocktail. The amount of [³H]-vasopressin combined with the membrane is measured by liquid scintillation counter and the rate of the inhibitory effect of the test compound is estimated according to the following equation. Rate of the inhibitory effect (%) = 100 -(C1 - B1)/(C0 - B1)X 100 [formula] C¹: The amount of [³H]-vasopressin combined with the membrane in the presence of the test compound (in prescribed amount). C⁰: The amount of [³H)-vasopressin combined with the membrane in the absence of the test compound. B¹: The amount of [³H]-vasopressin combined with the membrane in the presence of the excess amount of vasopressin (10⁻⁶ M).
# The results are expressed as IC₅₀ values, which is the concentration of the test compound required to achieve the inhibitory effect in the rate of 50 %.
# T1 sequence (Q00788 whole entry): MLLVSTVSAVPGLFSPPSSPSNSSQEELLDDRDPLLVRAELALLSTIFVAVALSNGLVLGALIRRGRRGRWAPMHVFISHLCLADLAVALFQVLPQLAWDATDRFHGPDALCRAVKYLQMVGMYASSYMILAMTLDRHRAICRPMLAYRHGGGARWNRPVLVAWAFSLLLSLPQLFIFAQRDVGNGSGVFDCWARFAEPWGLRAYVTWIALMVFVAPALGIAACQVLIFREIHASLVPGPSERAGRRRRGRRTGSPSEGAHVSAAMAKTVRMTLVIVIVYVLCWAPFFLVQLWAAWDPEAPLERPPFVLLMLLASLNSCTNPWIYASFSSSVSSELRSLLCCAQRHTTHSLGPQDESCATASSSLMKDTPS
row,Structure (SMILES),IC50 [µM]
1,Cc1cccc(C(=O)Nc2ccc(C(=O)N3CC(C)Cc4ccccc43)cc2)c1C (centres unmarked) [compound 48],0.021
2,CC1Cc2ccccc2N(C(=O)c2ccc(NC(=O)c3cc(Cl)cc(Cl)c3)cc2)C1 (centres unmarked) [compound 49],0.063
3,CN1CCN(C(=O)c2ccc(NC(=O)C3CCCCC3)cc2)c2ccccc21 [compound 50],1.3
4,Cc1ccccc1C(=O)Nc1ccc(C(=O)N2CCN(C)c3ccccc32)cc1 [compound 51],0.4
5,Cc1cccc(C(=O)Nc2ccc(C(=O)N3CCN(C)c4ccccc43)cc2)c1C [compound 52],0.32
6,CN1CCN(C(=O)c2ccc(NC(=O)c3cc(Cl)cc(Cl)c3)cc2)c2ccccc21 [compound 53],1.6
7,CC1CCc2ccccc2N1C(=O)c1ccc(NC(=O)c2cc(Cl)cc(Cl)c2)cc1 (centres unmarked) [compound 54],0.11
8,CC1CCN(C(=O)c2ccc(NC(=O)c3cc(Cl)cc(Cl)c3)cc2)c2ccccc21 (centres unmarked) [compound 55],0.091
9,CN1CCN(C(=O)c2ccc(NC(=O)C3CCCCC3)cc2)c2ccccc2C1 [compound 79],0.53
10,Cc1cccc(C(=O)Nc2ccc(C(=O)N3CCN(C)Cc4ccccc43)cc2)c1C [compound 81],0.15
11,COc1cccc(C(=O)Nc2ccc(C(=O)N3CCN(C)Cc4ccccc43)cc2)c1 [compound 83],0.73
12,CCCN1CCN(C(=O)c2ccc(NC(=O)c3cccc(C)c3C)cc2)c2ccccc2C1 [compound 86],0.58
13,CN1CCCN(C(=O)c2ccc(NC(=O)c3ccccc3)cc2)c2ccccc21 [compound 87],0.046
14,CN1CCCN(C(=O)c2ccc(NC(=O)c3cc(Cl)cc(Cl)c3)cc2)c2ccccc21 [compound 89],0.035
15,Cc1cccc(C(=O)Nc2ccc(C(=O)N3CCCN(C)c4ccccc43)cc2)c1C [compound 91],0.005
16,COc1cc(C(=O)N2CCN(C)Cc3ccccc32)ccc1NC(=O)c1cc(Cl)cc(Cl)c1 [compound 92],0.41
17,Cc1cccc(C(=O)Nc2ccc(C(=O)N3CC(N4CCCC4)Cc4ccccc43)cc2)c1C (centres unmarked) [compound 93],0.52
18,Cc1ccc2c(c1)CCCN2C(=O)c1ccc(NC(=O)c2cc(Cl)cc(Cl)c2)cc1 [compound 94],0.095
19,COc1ccc2c(c1)CCCN2C(=O)c1ccc(NC(=O)c2cc(Cl)cc(Cl)c2)cc1 [compound 95],0.089
20,O=C(Nc1ccc(C(=O)N2CC(CO)Cc3ccccc32)cc1)c1cc(Cl)cc(Cl)c1 (centres unmarked) [compound 96],0.039
21,CNC1CCN(C(=O)c2ccc(NC(=O)c3cc(Cl)cc(Cl)c3)cc2)c2ccccc21 (centres unmarked) [compound 97],0.024
22,NC1Cc2ccccc2N(C(=O)c2ccc(NC(=O)c3cc(Cl)cc(Cl)c3)cc2)C1 (centres unmarked) [compound 98],0.45
23,CC(=O)NC1Cc2ccccc2N(C(=O)c2ccc(NC(=O)c3cc(Cl)cc(Cl)c3)cc2)C1 (centres unmarked) [compound 99],1.6
24,CN(C)C1CCN(C(=O)c2ccc(NC(=O)c3cc(Cl)cc(Cl)c3)cc2)c2ccccc21 (centres unmarked) [compound 100],0.011
25,O=C(CN1CCCCC1)Nc1ccc(C(=O)N2CCCCc3ccccc32)cc1 [compound 103],0.54

row,Structure (SMILES),IC50 [µM]
1,O=C(COc1ccccc1)Nc1ccc(C(=O)N2CCCCc3ccccc32)cc1 [compound 104],0.37
2,CC(C)(COc1ccccc1)NCC(=O)Nc1ccc(C(=O)N2CCCCc3ccccc32)cc1 [compound 106],0.44
3,Cc1cccc(OCC(=O)Nc2ccc(C(=O)N3CCCCc4ccccc43)cc2)c1 [compound 107],0.032
4,COc1cccc(NCC(=O)Nc2ccc(C(=O)N3CCCCc4ccccc43)cc2)c1 [compound 108],0.12
5,Cc1ccc(NCC(=O)Nc2ccc(C(=O)N3CCCCc4ccccc43)cc2)cc1 [compound 110],0.044
6,COc1cccc(OCC(=O)Nc2ccc(C(=O)N3CCCCc4ccccc43)cc2)c1 [compound 111],0.087
7,Cc1ccc(NCC(=O)Nc2ccc(C(=O)N3CCCCc4ccccc43)cc2)c(C)c1 [compound 113],0.28
8,O=C(Nc1ccc(C(=O)N2CCCC(=O)c3ccccc32)cc1)c1cc(Cl)cc(Cl)c1 [compound 139],0.1
9,CN1CCN(C(=O)c2ccc(NC(=O)c3cc(Cl)cc(Cl)c3)cc2Cl)c2ccccc2C1 [compound 140],0.024
10,CNC1CCCN(C(=O)c2ccc(NC(=O)c3cc(Cl)cc(Cl)c3)cc2)c2ccccc21 (centres unmarked) [compound 141],0.01
11,CC(=O)N(C)C1CCCN(C(=O)c2ccc(NC(=O)c3cc(Cl)cc(Cl)c3)cc2)c2ccccc21 (centres unmarked) [compound 142],0.008
12,COc1cc(C(=O)N2CCC(N(C)C)c3ccccc32)ccc1NC(=O)c1cccc(C)c1C (centres unmarked) [compound 144],0.02
13,Cc1ccccc1C(=O)Nc1ccc(C(=O)N2CCC(CN(C)C)c3ccccc32)cc1 (centres unmarked) [compound 145],0.06
14,CCCNC1CCCN(C(=O)c2ccc(NC(=O)c3ccc(Cl)cc3Cl)cc2)c2ccccc21 (centres unmarked) [compound 169],0.071
15,Cc1ccccc1C(=O)Nc1ccc(C(=O)N2CCCC(N(C)C)c3ccccc32)cc1OCc1ccccc1 (centres unmarked) [compound 170],0.25
16,Cc1ccccc1C(=O)Nc1ccc(C(=O)N2CCC[S+]([O-])c3ccccc32)cc1 (centres unmarked) [compound 171],0.87
17,CN(C)C1CCCN(C(=O)c2ccc(NC(=O)c3ccccc3C(C)(C)C)cc2Cl)c2ccccc21 (centres unmarked) [compound 175],0.038
18,CNC1CCCN(C(=O)c2ccc(NC(=O)c3ccccc3Cl)cc2Cl)c2ccccc21 (centres unmarked) [compound 176],0.004
19,COc1cc(NC(=O)c2ccccc2Cl)ccc1C(=O)N1CCCC(N(C)C)c2ccccc21 (centres unmarked) [compound 177],0.15
20,CN(C)C1CCCN(C(=O)c2ccc(NC(=O)c3ccccc3Cl)cc2)c2ccccc21 (centres unmarked) [compound 180],0.034
21,CNC1CCCN(C(=O)c2ccc(NC(=O)c3ccccc3Cl)cc2)c2ccccc21 (centres unmarked) [compound 181],0.038
22,CNC1CCCN(C(=O)c2ccc(NC(=O)c3ccccc3C)cc2Cl)c2ccccc21 (centres unmarked) [compound 182],0.005
23,COc1cc(NC(=O)c2ccccc2C)ccc1C(=O)N1CCCC(N(C)C)c2ccccc21 (centres unmarked) [compound 183],0.26
24,CN(C)C1CCCN(C(=O)c2ccc(NC(=O)c3ccccc3Cl)cc2Cl)c2ccccc21 (centres unmarked) [compound 184],0.023
25,O=C(Nc1ccc(C(=O)N2CCCC(NC3CC3)c3ccccc32)c(Cl)c1)c1ccc(Cl)cc1Cl (centres unmarked) [compound 186],0.03

row,Structure (SMILES),IC50 [µM]
1,CN(C)C1CCCN(C(=O)c2ccc(NC(=O)c3ccccc3Cl)c(OC(=O)c3ccccc3Cl)c2)c2ccccc21 (centres unmarked) [compound 189],0.087
2,C=CCN(C)C1CCCN(C(=O)c2ccc(NC(=O)c3ccccc3C)cc2Cl)c2ccccc21 (centres unmarked) [compound 190],0.082
3,Cc1ccccc1C(=O)Nc1ccc(C(=O)N2CCCC(OC(N)=O)c3ccccc32)cc1 (centres unmarked) [compound 191],0.009
4,Cc1ccccc1C(=O)Nc1ccc(C(=O)N2CCCC(N(C)C)c3ccccc32)c(N(C)C)c1 (centres unmarked) [compound 197],0.99
5,CNC1CCCN(C(=O)c2ccc(NC(=O)c3ccccc3C(F)(F)F)cc2Cl)c2ccccc21 (centres unmarked) [compound 198],0.04
6,O=C(Nc1ccc(C(=O)N2CCCC(NC3CC3)c3ccccc32)c(Cl)c1)c1ccccc1Cl (centres unmarked) [compound 200],0.024
7,C=CCNC1CCCN(C(=O)c2ccc(NC(=O)c3ccccc3C)cc2Cl)c2ccccc21 (centres unmarked) [compound 201],0.023
8,O=C(Nc1ccc(C(=O)N2CCCC(N3CCCCC3)c3ccccc32)cc1)c1ccccc1Cl (centres unmarked) [compound 202],0.14
9,O=C(Nc1ccc(C(=O)N2CCCC(N3CCN(Cc4ccccc4)CC3)c3ccccc32)cc1)c1ccccc1Cl (centres unmarked) [compound 203],0.07
10,O=C(Nc1ccc(C(=O)N2CCCC(N3CCCC3)c3ccccc32)cc1)c1ccccc1Cl (centres unmarked) [compound 204],0.11
11,CC(=O)N1CCN(C2CCCN(C(=O)c3ccc(NC(=O)c4ccccc4Cl)cc3)c3ccccc32)CC1 (centres unmarked) [compound 205],0.074
12,CN1CCN(C2CCCN(C(=O)c3ccc(NC(=O)c4ccccc4Cl)cc3)c3ccccc32)CC1 (centres unmarked) [compound 206],0.088
13,Cc1ccccc1C(=O)Nc1ccc(C(=O)N2CCCC(O)c3ccccc32)c(Cl)c1 (centres unmarked) [compound 210],0.004
14,CN(C)C1CCCN(C(=O)c2ccc(NC(=O)c3ccccc3F)cc2)c2ccccc21 (centres unmarked) [compound 212],0.035
15,CN(C)C1CCCN(C(=O)c2ccc(NC(=O)c3ccc(F)cc3F)cc2)c2ccccc21 (centres unmarked) [compound 213],0.033
16,CN(C)C1c2ccccc2N(C(=O)c2ccc(NC(=O)c3ccccc3Cl)cc2)CCC1O (centres unmarked) [compound 216],0.91
17,Cc1ccccc1C(=O)Nc1ccc(C(=O)N2CC=Cc3ccccc32)cc1 [compound 217],0.37
18,Cc1ccccc1C(=O)Nc1ccc(C(=O)N2CCCC(N(C)C)c3ccccc32)c(C)c1 (centres unmarked) [compound 218],0.022
19,Cc1cc(NC(=O)c2ccccc2Cl)ccc1C(=O)N1CCCC(N(C)C)c2ccccc21 (centres unmarked) [compound 219],0.023
20,Cc1cc(NC(=O)c2ccc(Cl)cc2Cl)ccc1C(=O)N1CCCC(N(C)C)c2ccccc21 (centres unmarked) [compound 220],0.026
21,CCN(CC(=O)Nc1ccc(C(=O)N2CCCC(NC)c3ccccc32)c(Cl)c1)c1ccccc1 (centres unmarked) [compound 221],0.024
22,CN(C)C1CCCN(C(=O)c2ccc(NC(=O)c3ccccc3Cl)cc2F)c2ccccc21 (centres unmarked) [compound 223],0.022
23,CNC1c2ccccc2N(C(=O)c2ccc(NC(=O)c3ccccc3Cl)cc2Cl)CCC1O (centres unmarked) [compound 224],0.38
24,Cc1ccccc1C(=O)Nc1ccc(C(=O)N2CCCC(O)(CO)c3ccccc32)c(Cl)c1 (centres unmarked) [compound 225],0.03
